Test results published in paper PMC8364251 (Pharmacological Research, 2021).

Legend:
Format in all cases: cell-based, SARS-CoV-2
[1] = test system: Y453F mutant S-pseudotyped lentivirus
[2] = test system: N439K mutant S-pseudotyped lentivirus
[3] = test system: N501Y mutant S-pseudotyped lentivirus

O=C(O[C@@H]1Cc2c(O)cc(O)cc2O[C@@H]1c1cc(O)c(O)c(O)c1)c1cc(O)c(O)c(O)c1 [EGCG, epigallocatechin gallate]
inhibition of mutant pseudovirus infection [1]: effectively inhibited the infection of all mutants
inhibition of mutant pseudovirus infection [2]: effectively inhibited the infection of all mutants
inhibition of mutant pseudovirus infection [3]: effectively inhibited the infection of all mutants
